The record followed here is patent publication US20120252792A1, “METHODS AND COMPOSITIONS FOR MODULATING RHO-MEDIATED GENE TRANSCRIPTION” (THE REGENTS OF THE UNIVERSITY OF MICHIGAN, priority 2009, published 2012).

The term IC50 denotes the concentration that gives 50% inhibition.

Some results are limits rather than exact numbers.

Type in all cases: cell-based, human
In one test the test system is Rho/MKL1 pathway. In words: SRE.L-firefly luciferase reporter (dual luciferase assay), Gα12QL-transfected PC-3 cells. To be noted: for inhibition at 10 µM: read-out: % inh SRE.L (10 μM); for inhibition at 100 µM: read-out: % inh SRE.L (100 μM). How it is done:
(§1) Dual Luciferase Assay: Seed PC-3 prostate cancer cells (40,000 cells/well) were grown in 96-well plates in 10% FBS containing DMEM medium. Cells were transiently transfected with the Gα12QL activator of the Rho/MKL1 pathway, along with the SRE.L-firefly luciferase reporter construct for 6 hours. Additionally, cells were co-transfected with the TK-Renilla luciferase reporter as an indicator of non-specific compound effects. Various concentrations of selected compounds were added to the 96-well plates. Plates were incubated for 19 hours at 37° C. and 5% CO2 in 0.5% FBS containing DMEM medium. Cells were lysed with 1X Passive Lysis Buffer (Promega). Plates were incubated for 30 minutes at room temperature. Luminescence counts were read with a Victor2 (Perkin-Elmer) plate reader.
For orientation: In a reporter assay the amount or activity of a reporter protein is the signal.

In test [1] the test system is PC-3 prostate cancer cells. In words: WST1 cell viability assay. To be noted: PC-3 cells, just before lysis; for inhibition at 10 µM / inhibition at 100 µM: Homo sapiens; for inhibition at 10 µM: PC-3, 10 μM, read-out: % inh WST-1 (10 μM); for inhibition at 100 µM: PC-3, 100 μM, read-out: % inh WST-1 (100 μM). How it is done: WST1 Cell Viability Assay: One hour prior to cell lysis for the dual luciferase assay, 10 μl per well of WST1 reagent (Roche) was added to the 96-well plates. Plates were incubated for 1 hour at 37° C. and 5% CO2. Cell viability was measured by WST1 absorbance at 450 nm with a Victor2 (Perkin-Elmer) plate reader.
In general terms: Formazan colour is commonly taken as a measure of viable cells.

The subject of test [2] is TK-Renilla luciferase reporter. In words: TK-Renilla (pRL-TK) luciferase reporter, indicator of non-specific compound effects. To be noted: PC-3 cells; for inhibition at 10 µM / inhibition at 100 µM: Homo sapiens, PC-3, 19 h; for inhibition at 10 µM: read-out: % inh PRL-TK (10 μM); for inhibition at 100 µM: read-out: % inh PRL-TK (100 μM). The protocol:
as §1

[3] abbreviates: Homo sapiens, 19 h, 10 μM, DMSO alone = 0%.
[4] abbreviates: Homo sapiens, 19 h, 100 μM, DMSO alone = 0%.

`O=C(CNC(=O)c1cc(C(F)(F)F)cc(C(F)(F)F)c1)Nc1ccc(Cl)cc1` [Compound 3, N-(2-(4-chlorophenylamino)-2-oxoethyl)-3,5-bis(trifluoromethyl)benzamide]: the IC50 with Rho/MKL1 pathway (Homo sapiens, 19 h) came to 33 µM. In addition, the inhibition at 10 µM stood at 45% in the test with Rho/MKL1 pathway (setting [3]), 0% in test [1] and 15% in test [2]. Besides, the inhibition at 100 µM in the test with Rho/MKL1 pathway (setting [4]) was found to be 85%; in test [1] it was 30%; in test [2] (100 μM), 25%.

`O=C(NCCCOc1ccc(Cl)cc1)c1cc(C(F)(F)F)cc(C(F)(F)F)c1` [Compound 19, N-(3-(4-chlorophenoxy)propyl)-3,5-bis(trifluoromethyl)benzamide]: the IC50 in the test with Rho/MKL1 pathway (Homo sapiens, 19 h) was 8.9 µM. For the same molecule, the results for the inhibition at 10 µM (with Rho/MKL1 pathway (setting [3]); in test [1]; in test [2]) were 55%, 0% and 28%, respectively. Besides, the inhibition at 100 µM stood at 86% in the test on Rho/MKL1 pathway (setting [4]), 38% in test [1] and 65% in test [2] (100 μM).

As for `O=C(CC1CC(c2cc(C(F)(F)F)cc(C(F)(F)F)c2)=NO1)Nc1ccc(Cl)cc1` (stereo not drawn) [Compound 23, 2-(3-(3,5-bis(trifluoromethyl)phenyl)-4,5-dihydroisoxazol-5-yl)-N-(4-chlorophenyl)acetamide], in the test with Rho/MKL1 pathway (Homo sapiens, 19 h), half-maximal inhibition (IC50) was put at 4.6 µM. The inhibition at 10 µM came out at 77% in the test on Rho/MKL1 pathway (setting [3]), 0% in test [1] and 58% in test [2]. Further, the inhibition at 100 µM in the test with Rho/MKL1 pathway (setting [4]) stood at 87%; in test [1], 66%; in test [2] (100 μM) it was 73%.

Consider `O=C(CCCNC(=O)c1cc(C(F)(F)F)cc(C(F)(F)F)c1)Nc1ccc(Cl)cc1` [Compound 2, N-(4-(4-chlorophenylamino)-4-oxobutyl)-3,5-bis(trifluoromethyl)benzamide], for which, in the test with Rho/MKL1 pathway (Homo sapiens, 19 h), the IC50 was 21 µM. The inhibition at 10 µM in the test on Rho/MKL1 pathway (setting [3]) was found to be 37%; in test [1], 0%; in test [2], 5%. The inhibition at 100 µM was 79% in the test on Rho/MKL1 pathway (setting [4]), 12% in test [1] and 42% in test [2] (100 μM).

Consider `O=C(NCCCNc1ccc(Cl)cc1)c1cc(C(F)(F)F)cc(C(F)(F)F)c1` [Compound 15, N-(3-(4-chlorophenylamino)propyl)-3,5-bis(trifluoromethyl)benzamide], for which, in the test with Rho/MKL1 pathway (Homo sapiens, 19 h), the midpoint of inhibition, the IC50, lay at 5.1 µM. Besides, the inhibition at 10 µM in the test on Rho/MKL1 pathway (setting [3]) was 70%; in test [1], 0%; in test [2], 37%. The inhibition at 100 µM in the test with Rho/MKL1 pathway (setting [4]) was determined as 80%; in test [1], 11%; in test [2] (100 μM), 35%.

For `FC(F)(F)c1cc(CNCCCNc2ccc(Cl)cc2)cc(C(F)(F)F)c1` [Compound 28, N^1-(3,5-bis(trifluoromethyl)benzyl)-N^3-(4-chlorophenyl)propane-1,3-diamine], the IC50 with Rho/MKL1 pathway (Homo sapiens, 19 h) turned out to be 9.1 µM. The results for the inhibition at 10 µM (in the test on Rho/MKL1 pathway (setting [3]); in test [1]; in test [2]) were 65%, 0% and 6%, respectively. Further, the inhibition at 100 µM came out at 100% in the test on Rho/MKL1 pathway (setting [4]), 89% in test [1] and 90% in test [2] (100 μM).

For the molecule `O=C(CCNC(=O)c1cc(C(F)(F)F)cc(C(F)(F)F)c1)Nc1ccc(Cl)cc1` [Compound 30, N-(3-(4-chlorophenylamino)-3-oxopropyl)-3,5-bis(trifluoromethyl)benzamide], the “% inh SRE.L (10 μM)” value with Rho/MKL1 pathway (10 μM, 19 hrs, DMSO alone = 0%) is on record as 38%. In addition, the “% inh SRE.L (100 μM)” value in the test with Rho/MKL1 pathway (100 μM, 19 hrs, DMSO alone = 0%) is recorded as 64%. Besides, the IC50 worked out at 38 µM in the test with Rho/MKL1 pathway (19 hrs) and 25 µM in the test with Rho/MKL1 pathway (Homo sapiens, 19 h). The inhibition at 10 µM was 44% in the test with Rho/MKL1 pathway (setting [3]), 0% in test [1] and 0% in test [2]. Further, the inhibition at 100 µM is 66% in the test on Rho/MKL1 pathway (setting [4]), 6% in test [1] and 15% in test [2] (100 μM). Further, in test [1] (100 μM, 100 µM), the “% inh WST-1 (100 μM)” value is on record as 10%. The “% inh PRL-TK (100 μM)” value in test [2] (100 μM, 19 hrs) was found to be 22%.

On to `O=C(NCc1csc(-c2ccc(Cl)cc2)n1)c1cc(C(F)(F)F)cc(C(F)(F)F)c1` [Compound 18, N-((2-(4-chlorophenyl)thiazol-4-yl)methyl)-3,5-bis(trifluoromethyl)benzamide], for which 4.1 µM corresponded to half-maximal inhibition in the test with Rho/MKL1 pathway (Homo sapiens, 19 h) (IC50). Also, the inhibition at 10 µM is 50% with Rho/MKL1 pathway (setting [3]), 0% in test [1] and 39% in test [2]. The inhibition at 100 µM stood at 45% with Rho/MKL1 pathway (setting [4]), 0% in test [1] and 38% in test [2] (100 μM).

In the test on Rho/MKL1 pathway (Homo sapiens, 19 h), `O=C(CONC(=O)c1cc(C(F)(F)F)cc(C(F)(F)F)c1)Nc1cccc(Cl)c1` [Compound 10, N-(2-(3-chlorophenylamino)-2-oxoethoxy)-3,5-bis(trifluoromethyl)benzamide] yielded a 50% inhibitory concentration (IC50) of 5.9 µM. The values for the inhibition at 10 µM (in the test with Rho/MKL1 pathway (setting [3]); in test [1]; in test [2]) were 65%, 49% and 51%, respectively. Besides, the inhibition at 100 µM with Rho/MKL1 pathway (setting [4]) turned out to be 100%; in test [1], 97%; in test [2] (100 μM), 89%.

Consider `O=C(NCCC(=O)N1CCc2cc(Cl)ccc21)c1cc(C(F)(F)F)cc(C(F)(F)F)c1` [Compound 29, N-(3-(5-chloroindolin-1-yl)-3-oxopropyl)-3,5-bis(trifluoromethyl)benzamide], for which, in the test with Rho/MKL1 pathway (Homo sapiens, 19 h), the IC50 was 13 µM. For the same molecule, the figures for the inhibition at 10 µM (with Rho/MKL1 pathway (setting [3]); in test [1]; in test [2]) were 15%, 0% and 0%, respectively. Further, the inhibition at 100 µM in the test on Rho/MKL1 pathway (setting [4]) stood at 40%; in test [1] it was 0%; in test [2] (100 μM) it was 1%.

As for `O=C(CCNCc1cc(C(F)(F)F)cc(C(F)(F)F)c1)Nc1ccc(Cl)cc1` [Compound 22, 3-(3,5-bis(trifluoromethyl)benzylamino)-N-(4-chlorophenyl)propanamide], the IC50 in the test on Rho/MKL1 pathway (Homo sapiens, 19 h) amounted to 8.1 µM. The figures for the inhibition at 10 µM (in the test with Rho/MKL1 pathway (setting [3]); in test [1]; in test [2]) were 64%, 0% and 12%, respectively. Moreover, the inhibition at 100 µM came out at 100% in the test with Rho/MKL1 pathway (setting [4]), 92% in test [1] and 91% in test [2] (100 μM).

In turn, `O=C(Nc1ccc(Cl)cc1)C1CCN(C(=O)c2cc(C(F)(F)F)cc(C(F)(F)F)c2)CC1` [Compound 5, 1-(3,5-bis(trifluoromethyl)benzoyl)-N-(4-chlorophenyl)piperidine-4-carboxamide] gave an IC50 with Rho/MKL1 pathway (Homo sapiens, 19 h) of 16 µM. For the same molecule, the values for the inhibition at 10 µM (with Rho/MKL1 pathway (setting [3]); in test [1]; in test [2]) were 17%, 0% and 0%, respectively. Moreover, the inhibition at 100 µM in the test on Rho/MKL1 pathway (setting [4]) is 87%; in test [1], 39%; in test [2] (100 μM), 17%.

In the test with Rho/MKL1 pathway (Homo sapiens, 19 h), `O=C(CONC(=O)c1ccc(Cl)cc1)Nc1cc(C(F)(F)F)cc(C(F)(F)F)c1` [Compound 6, N-(2-(3,5-bis(trifluoromethyl)phenylamino)-2-oxoethoxy)-4-chlorobenzamide] returned an IC50 of 8.6 µM. The inhibition at 10 µM with Rho/MKL1 pathway (setting [3]) amounted to 58%; in test [1] it was 11%; in test [2], 19%. Also, the inhibition at 100 µM in the test with Rho/MKL1 pathway (setting [4]) turned out to be 100%; in test [1] it was 96%; in test [2] (100 μM), 87%.

`O=C(Nc1ccc(Cl)cc1)c1ccc(NC(=O)c2cc(C(F)(F)F)cc(C(F)(F)F)c2)cc1` [Compound 38]: the IC50 with Rho/MKL1 pathway (Homo sapiens, 19 h) was over 100 µM. In addition, the inhibition at 10 µM (with Rho/MKL1 pathway (setting [3]); in test [1]; in test [2]) was 0% in each case.

For the molecule `O=C(CCc1cnnn1-c1cc(C(F)(F)F)cc(C(F)(F)F)c1)Nc1ccc(Cl)cc1` [Compound 59], the IC50 in the test with Rho/MKL1 pathway (Homo sapiens, 19 h) was over 100 µM. Moreover, the figures for the inhibition at 10 µM (in the test on Rho/MKL1 pathway (setting [3]); in test [1]; in test [2]) were -3%, -9.5% and -31.8%, respectively. In addition, the inhibition at 100 µM with Rho/MKL1 pathway (setting [4]) was 4.7%; in test [1], -11.8%; in test [2] (100 μM), -13.3%.

In turn, `O=C(Nc1ccc(Cl)cc1)C1CCCN1C(=O)c1cc(C(F)(F)F)cc(C(F)(F)F)c1` (stereo not drawn) [Compound 7, 1-(3,5-bis(trifluoromethyl)benzoyl)-N-(4-chlorophenyl)pyrrolidine-2-carboxamide] showed an IC50 in the test with Rho/MKL1 pathway (Homo sapiens, 19 h) of 69 µM. The inhibition at 10 µM in the test on Rho/MKL1 pathway (setting [3]) was 23%; in test [1], 0%; in test [2], 12%. Further, the inhibition at 100 µM with Rho/MKL1 pathway (setting [4]) was found to be 83%; in test [1] it was 22%; in test [2] (100 μM), 27%.
